Paper PMC8151276, “An Integrated Approach toward NanoBRET Tracers for Analysis of GPCR Ligand Engagement” (Molecules, 2021)
Blank lines part the entries; values can stand above or below the compound they belong to.

Target: T1, DRD3 (Homo sapiens, UniProt P35462)
T1 construct: purchased Promega (in-house HiBiT-GPCR construct library, NanoBRET)
Assay: NanoBRET screen HiBiT-DRD3 in HEK293
Assay type: binding
Experimental: Each tracer candidate was screened across the entire library of HiBiT-GPCR constructs using NanoBRET as the detection modality. As depicted in Figure 4A, the specificity of interactions was evaluated through decrease in BRET due to competitive displacement of a bound tracer by excess parental compound. Each tracer was analyzed for binding to each HiBiT-GPCR fusion in the absence and in the presence of competing parental compound. Briefly, HEK293 cells were transfected with HiBiT-GPCR constructs diluted into promoterless DNA to reduce expression and maximize translocation to the cell surface. Each tracer candidate was then screened at concentrations of 1 μM and 0.1 μM across cells expressing these fusions. Cells were treated for 1.5 h with tracer either alone or in the presence of 20 μM competing parental compound (i.e., control). BRET was measured upon addition of purified LgBiT and subsequent complementation with HiBiT genetically fused to a GPCR. The specificity of interactions was assessed through a decrease in BRET signal due to competitive displacement of the bound tracer. To further gauge the robustness of these interactions, the fold response over the control (i.e., BRETtracer/BRETcontrol) was calculated. We chose a 1.5-fold response, which translates to ≥7-fold signal over noise as the minimal threshold required to score an interaction as positive.
HiBiT-GPCR DNA constructs were diluted in 10 mM Tris pH 8 to a final concentration of 0.01 μg/μL, arrayed in 96-well plates and stored at −20 °C. For transfection, HEK293 cells were suspended in Opti-MEM (without phenol red) supplemented with 2% fetal bovine serum (Seradigm) and 100 units/mL penicillin–streptomycin (Gibco) at a final concentration of 220,000 cells/mL and dispensed into white 96-well plates at 90 μL/well. Subsequent transfections and screens were carried using an Agilent Bravo Automated Liquid Handling Platform. First, the 96-well HiBiT DNA arrays were diluted 25-fold in Opti-MEM (without serum or phenol red) to a final concentration of 0.0004 μg/μL and 20 μL of the diluted DNAs were transferred into new 96-well plates. Next, promoterless carrier DNA (1 μg/μL) was diluted 25-fold (0.04 μg/μL) and then dispensed into the diluted arrays at 20 μL/well. Following brief mixing, Viafect transfection reagent (Promega) diluted 16-fold into Opti-MEM was dispensed into the plates at 40 μL/well. After mixing by pipetting, plates were incubated for 10 min on the pipetting station deck. The DNA-transfection reagent complexes were then added to plates containing cells. To facilitate the screen, 10 μL of DNA-transfection reagent complexes were added in duplicates to the top 4 and bottom 4 rows, resulting in two identical 48-well arrays per plate. Plates with transfected cells were incubated for 18–20 h at 37 °C/5% CO2. A screen of each tracer across the entire library using two different concentrations requires duplicate plates of transfected cells. Depending on the number of tracers being screened, transfections can be scaled up using the same ratios. The next day, for each tracer, four 20× screening solutions in tracer dilution buffer (Promega) were prepared: two duplicates at final concentration of 20 μM and two duplicates at a final concentration of 2 μM. […] The four resulting solutions were diluted 4-fold in Opti-MEM without serum or phenol red to generate 5× solutions (5 µM and 0.5 µM tracer +/− 100 μM competing compound). To screen the library, a BioTek MultiFlo FX liquid dispenser was used to dispense 22.5 µL of tracer solution to the top 4 rows and 22.5 µL tracer + competing compound solution to the 4 bottom rows. Plates were briefly mixed on an orbital shaker and incubated for 1.5 h at room temperature. […] Plates were briefly mixed on an orbital shaker and incubated for 15 min to allow complementation.

T1 sequence (P35462 whole entry): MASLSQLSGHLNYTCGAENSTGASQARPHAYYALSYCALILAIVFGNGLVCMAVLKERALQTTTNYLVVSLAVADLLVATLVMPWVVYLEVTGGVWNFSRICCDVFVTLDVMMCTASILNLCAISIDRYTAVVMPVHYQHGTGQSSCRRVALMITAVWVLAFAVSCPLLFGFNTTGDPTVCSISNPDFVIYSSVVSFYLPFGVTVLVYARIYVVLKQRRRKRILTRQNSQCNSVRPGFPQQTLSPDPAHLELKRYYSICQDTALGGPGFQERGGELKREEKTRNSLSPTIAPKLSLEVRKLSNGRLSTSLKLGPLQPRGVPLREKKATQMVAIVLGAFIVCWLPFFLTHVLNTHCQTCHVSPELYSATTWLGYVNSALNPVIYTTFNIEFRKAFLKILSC

SMILES: O=C(CCc1ccc2n1[B-](F)(F)[N+]1=C(c3ccc[nH]3)C=CC1=C2)NCc1ccc(C(=O)NCCOCCC(=O)N[C@@H]2CC[C@@]3(O)[C@H]4Cc5ccc(O)c6c5[C@@]3(CCN4CC3CC3)[C@H]2O6)cc1 [Naltrexone-3-NB590]
- NanoBRET Fold Response (DRD3, tracer 0.1μM): 0.79
- NanoBRET Fold Response (DRD3, tracer 1μM): 1.37

SMILES: CCCn1c(=O)c2[nH]c(-c3ccc(OCC(=O)NCCNC(=O)CCOCCNC(=O)c4ccc(CNC(=O)CCc5ccc6n5[B-](F)(F)[N+]5=C(c7ccc[nH]7)C=CC5=C6)cc4)cc3)nc2n(CCC)c1=O [XAC-3-NB590]
- NanoBRET Fold Response (DRD3, tracer 0.1μM): 1.23
- NanoBRET Fold Response (DRD3, tracer 1μM): 0.81

SMILES: CC(C)N(CC[C@H](c1ccccc1)c1cc(CCNC(=O)c2ccc(CNC(=O)CCc3ccc4n3[B-](F)(F)[N+]3=C(c5ccc[nH]5)C=CC3=C4)cc2)ccc1O)C(C)C [Tolterodine-BZ-NB590]
- NanoBRET Fold Response (DRD3, tracer 0.1μM): 0.91
- NanoBRET Fold Response (DRD3, tracer 1μM): 1.25

- NanoBRET Fold Response (DRD3, other tracers/Aminopotentidine (unmodified), 0.1μM): 1.16
- NanoBRET Fold Response (DRD3, other tracers/Aminopotentidine (unmodified), 1μM): 1.64
SMILES: N#CN/C(=N\CCNC(=O)c1ccc(N)cc1)NCCCOc1cccc(CN2CCCCC2)c1 [Aminopotentidine (unmodified)]

- NanoBRET Fold Response (0.1μM tracer): 0.93
- NanoBRET Fold Response (1μM tracer): 1.05
SMILES: COc1ccc2[nH]c(-c3ccc(CNC(=O)CCOCCOCCOCCOCCNC(=O)CCc4ccc5n4[B-](F)(F)[N+]4=C(c6ccc[nH]6)C=CC4=C5)cc3)c(CCNC(C)=O)c2n1 [AzomelatoninICO9-2-NB590]

SMILES: CN1CCN(C2=Nc3cc(Cl)ccc3N(CC(=O)NCCOCCOCCOCCOCCNC(=O)CCc3ccc4n3[B-](F)(F)[N+]3=C(c5ccc[nH]5)C=CC3=C4)c3ccccc32)CC1 [Clozapine-c-2-NB590]
- NanoBRET Fold Response (DRD3, 0.1μM tracer): 0.96
- NanoBRET Fold Response (DRD3, 1μM tracer): 0.76

SMILES: COc1ccccc1N1CCN(CCCCN2C(=O)c3ccc(CNC(=O)CCOCCNC(=O)c4ccc(CNC(=O)CCc5ccc6n5[B-](F)(F)[N+]5=C(c7ccc[nH]7)C=CC5=C6)cc4)cc3C2=O)CC1 [NAN-190-3-NB590]
- NanoBRET Fold Response (DRD3, tracer 0.1μM): 2.25
- NanoBRET Fold Response (DRD3, tracer 1μM): 1.52

SMILES: COc1ccccc1N1CCN(CCCCN2C(=O)c3ccc(CNC(=O)CCOCCOCCOCCOCCNC(=O)CCc4ccc5n4[B-](F)(F)[N+]4=C(c6ccc[nH]6)C=CC4=C5)cc3C2=O)CC1 [NAN-190-2-NB590]
- NanoBRET Fold Response (DRD3, tracer 0.1μM): 2.36
- NanoBRET Fold Response (DRD3, tracer 1μM): 1.69

SMILES: CC(C)N(CC[C@H](c1ccccc1)c1cc(CCNC(=O)CCOCCOCCOCCOCCNC(=O)CCc2ccc3n2[B-](F)(F)[N+]2=C(c4ccc[nH]4)C=CC2=C3)ccc1O)C(C)C [Tolterodine-2-NB590]
- NanoBRET Fold Response (DRD3, tracer 0.1μM): 0.97
- NanoBRET Fold Response (DRD3, tracer 1μM): 0.98

- NanoBRET Fold Response (DRD3, tracer 0.1μM): 1.25
- NanoBRET Fold Response (DRD3, tracer 1μM): 1.17
SMILES: N#CN=C(NCCCOc1cccc(CN2CCCCC2)c1)NCCNC(=O)CCOCCOCCOCCOCCNC(=O)CCc1ccc2n1[B-](F)(F)[N+]1=C(c3ccc[nH]3)C=CC1=C2 [Aminopotentidine-2-NB590]

- NanoBRET Fold Response (DRD3, 0.1μM): 0.99
- NanoBRET Fold Response (DRD3, 1μM): 1.01
SMILES: CCOC(=O)c1cc(C#N)c(N2CCC(C(=O)NS(=O)(=O)Cc3ccccc3/C=C/C(=O)NCCNC(=O)CCc3ccc4n3[B-](F)(F)[N+]3=C(c5ccc[nH]5)C=CC3=C4)CC2)nc1C [AZD1283-1-NB590]

SMILES: CN(C)CCC=C1c2ccccc2CCc2ccc(C(=O)NCCNC(=O)CCOCCOCCOCCOCCNC(=O)CCc3ccc4n3[B-](F)(F)[N+]3=C(c5ccc[nH]5)C=CC3=C4)cc21 [Amitriptyline-b-2-NB590]
- NanoBRET Fold Response (tracer at 0.1μM, listed as amitriptyline-b-2-NB590): 1.68
- NanoBRET Fold Response (tracer at 1μM, listed as amitriptyline-b-2-NB590): 1.25

SMILES: CN(C)CCC=C1c2ccccc2CCc2ccc(C(=O)NCCNC(=O)CCOCCOCCOCCOCCNC(=O)CCc3ccc4n3[B-](F)(F)[N+]3=C(c5ccc[nH]5)C=CC3=C4)cc21 [Amitriptyline-a-2-NB590]
- NanoBRET Fold Response (tracer at 0.1μM): 1.13
- NanoBRET Fold Response (tracer at 1μM): 1.37

SMILES: O=C(CCc1ccc2n1[B-](F)(F)[N+]1=C(c3ccc[nH]3)C=CC1=C2)NCCOCCOCCNC(=O)OCCOCCN1CCN(C2=Nc3ccccc3Sc3ccccc32)CC1 [Quetiapine-a-2-NB590]
- NanoBRET Fold Response (DRD3, tracer 0.1μM): 1.56
- NanoBRET Fold Response (DRD3, tracer 1μM): 1.98

SMILES: Cc1cc2c(s1)Nc1ccccc1N=C2N1CCN(CCCNC(=O)CCOCCOCCOCCOCCNC(=O)CCc2ccc3n2[B-](F)(F)[N+]2=C(c4ccc[nH]4)C=CC2=C3)CC1 [Olanzapine-a-2-NB590]
- NanoBRET Fold Response (DRD3, tracer 0.1μM): 1.74
- NanoBRET Fold Response (DRD3, tracer 1μM): 2.07

SMILES: CN1CCN(C2=Nc3cc(Cl)ccc3Nc3ccc(CNC(=O)CCOCCOCCOCCOCCNC(=O)CCc4ccc5n4[B-](F)(F)[N+]4=C(c6ccc[nH]6)C=CC4=C5)cc32)CC1 [Clozapine-b-2-NB590]
- NanoBRET Fold Response (DRD3, 0.1μM tracer): 1.54
- NanoBRET Fold Response (DRD3, 1μM tracer): 2.63

- NanoBRET Fold Response (0.1μM tracer): 1.14
- NanoBRET Fold Response (1μM tracer): 1.27
SMILES: COc1ccc2c(n1)c(CCNC(C)=O)cn2CCNC(=O)CCc1ccc2n1[B-](F)(F)[N+]1=C(c3ccc[nH]3)C=CC1=C2 [Azamelatonin-1-NB590]

SMILES: CN(CCC=C1c2ccccc2CCc2ccccc21)C(=O)CCOCCOCCOCCOCCNC(=O)CCc1ccc2n1[B-](F)(F)[N+]1=C(c3ccc[nH]3)C=CC1=C2 [Amitriptyline-e-2-NB590]
- NanoBRET Fold Response (tracer at 1μM): 1.24

SMILES: O=C(CCc1ccc2n1[B-](F)(F)[N+]1=C(c3ccc[nH]3)C=CC1=C2)NCc1ccc(C(=O)NCCOCCOCCNCC(O)COc2cccc3ccccc23)cc1 (stereo not drawn) [Propranolol-3-NB590]
- NanoBRET Fold Response (DRD3, 0.1μM): 1.05
- NanoBRET Fold Response (DRD3, 1μM): 1.30

- NanoBRET Fold Response (DRD3, 0.1μM tracer): 2.22
- NanoBRET Fold Response (DRD3, 1μM tracer): 2.49
SMILES: O=C(CCOCCOCCOCCOCCNC(=O)CCc1ccc2n1[B-](F)(F)[N+]1=C(c3ccc[nH]3)C=CC1=C2)NCCCN1CCN(C2=Nc3cc(Cl)ccc3Nc3ccccc32)CC1 [Clozapine-a-2-NB590]
